According to patent publication US20170135322A1, “A BIOCONTROL COMBINATION AND METHOD FOR IMPROVING QUALITY OF SHELLED EGGS” (NOBACTRA ISRAEL Ltd., priority 2014, published 2017):
Where “and” joins values, the source holds several entries; their conditions need not be identical. Equal values may be shown once.

Assays:
Experiment in all cases: Effect on fungi growth (Example III)
Format in all cases: cell-based
[1] = system: Fusarium Spp. (isolate #1); conditions: additive 10%, without biocontrol formulation, initial diameter 0.5 cm
Excerpt: (§1) The effect of various additives on fungi growth was examined. The fungi examined included two isolates of Fusarium Spp. (isolate #1 and isolate #2), sclerotium, and trychoderma.
(§2) The larger the colony's dimension (diameter) in the petri dish, the lower is the inhibitory effect of the additive. The initial diameter of the colony before treatment was 0.5 cm.

[2] = system: Fusarium Spp. (isolate #2); conditions: additive 10%, without biocontrol formulation, initial diameter 0.5 cm
Excerpt: as §1, §2

sclerotium = conditions: additive 10%, without biocontrol formulation, initial diameter 0.5 cm
Excerpt: as §1, §2

trychoderma = conditions: additive 10%, without biocontrol formulation; initial diameter 0.5 cm
Excerpt: as §1, §2

SMILES | colony size (diameter) ([1]; hydrate) | colony size (diameter) ([2]; hydrate) | colony size (diameter) (sclerotium; hydrate) | colony size (diameter) (trychoderma) | colony size (diameter) [1] | colony size (diameter) [2] | colony size (diameter) (sclerotium)
O.O.O.O.O.O.O.O=S(=O)([O-])[O-].[Mg+2] [Magnesium sulphate hepta hydrate, magnesiumsulphate hepta hydrate] | 3.2 cm and 3.1 cm | 3.0 cm and 3.1 cm | 3.0 cm and 2.7 cm and 2.5 cm and 2.2 cm | 0.5 cm | – | – | –
O=C([O-])O.[K+] [Potassium bicarbonate, potassium becarbonate] | – | – | – | 0.5 cm | 1.6 cm and 1.5 cm and 2.0 cm and 1.8 cm | 1.3 cm and 1.2 cm | 0.5 cm
O=C([O-])O.[Na+] [Sodium bicarbonate, sodium bicarbonate] | – | – | – | 0.5 cm | 1.0 cm and 1.1 cm | 0.5 cm | 0.5 cm
